From patent US12577231B2, “Androgen receptor PROTACS” (GlaxoSmithKline Intellectual Property Development Limited, priority 2023, dated 2026)

Experiment: Systemic exposure following oral administration in the rat
Conditions: for AUC0-t: 72 hours sampling; for AUC0-t / Cmax / Dose Normalised AUC0-t / Tmax: mean±SD (n=3); for *Estimated Bioavailability: dose normalised AUC0-t against an IV dose of 0.5 mg/kg
[1] = 30 mg/kg in 1% methylcellulose (aq.), male Wistar Han rat, 30 mg/kg
[2] = 35 mg/kg in 100% PEG400, male Wistar Han rat, 35 mg/kg

Experimental: Systemic exposure of various forms of N-((1r,3r)-3-(4-cyano-3-methoxyphenoxy)-2,2,4,4-tetramethylcyclobutyl)-4-(4-((4-(4-(2,4-dioxotetrahydropyrimidin-1(2H)-yl)-1H-pyrazolo[4,3-c]pyridin-1-yl)piperidin-1-yl)methyl)piperidin-1-yl)-3-fluorobenzamide were assessed following oral administration of 30 mg/kg of a suspension formulation (1% methylcellulose (aq)) or following oral administration of 35 mg/kg of a suspension formulation (100% PEG400) in the male Wistar Han rat. […] The sampling period was 72 hours, and the data is reported in the attached table as mean±SD (n=3).

COc1cc(O[C@H]2C(C)(C)[C@H](NC(=O)c3ccc(N4CCC(CN5CCC(n6ncc7c(N8CCC(=O)NC8=O)nccc76)CC5)CC4)c(F)c3)C2(C)C)ccc1C#N [Crystalline API, N-((1r,3r)-3-(4-cyano-3-methoxyphenoxy)-2,2,4,4-tetramethylcyclobutyl)-4-(4-((4-(4-(2,4-dioxotetrahydropyrimidin-1(2H)-yl)-1H-pyrazolo[4,3-c]pyridin-1-yl)piperidin-1-yl)methyl)piperidin-1-yl)-3-fluorobenzamide]
AUC0-t [1]: 4380 ± 1450 ng·h/mL | Cmax [1]: 185 ± 76 ng/mL | Dose Normalised AUC0-t [1]: 148 ± 49 (ng · h/mL)/(mg/kg | Tmax [1]: 7.3 ± 1.2 h | *Estimated Bioavailability (30 mg/kg in 1% methylcellulose (aq.), rat): 16% | AUC0-t [2]: 10700 ± 3370 ng·h/mL | Cmax [2]: 420 ± 123 ng/mL | Dose Normalised AUC0-t [2]: 309 ± 98 (ng · h/mL)/(mg/kg | Tmax [2]: 9.3 ± 2.3 h | *Estimated Bioavailability (35 mg/kg in 100% PEG400, rat): 33%
